According to PubChem BioAssay (NCI):
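Exposure lasted 48 hours, with cells grown in 96-well plates and compounds tested at five concentrations. TGI marks complete inhibition of growth.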

system: HOP-62 NSCLC; assay: NCI anticancer screen, dose series, 48 h

| Structure (SMILES) | TGI |
| --- | --- |
| COc1nc2nccnc2c(=O)n1C | > 10 µM |
| CCOC(=O)NC(Nc1cccc(C(F)(F)F)c1)(C(F)(F)F)C(F)(F)F | > 100 µM |
| COc1ccc2cc(C(C)C(=O)N3CCOC3=O)ccc2c1 (centres undefined) | > 100 µM |

system: HOP-92 NSCLC; assay: NCI anticancer screen, dose series, 48 h

| Structure (SMILES) | TGI |
| --- | --- |
| CC1=CC(C/C(C)=C/COc2ccc3ccc(=O)oc3c2)OC1=O (centres undefined) | > 100 µM |
| CN1[C@@H]2C[C@@H](OC(=O)[C@H](CO)c3ccccc3)C[C@H]1[C@@H]1O[C@@H]12 | > 100 µM |
| N#Cc1c(Cl)cc(Cl)n2c1nc1ccccc12 | > 21.9 µM |
| CC1=C(O)C(=O)C=C2C1=CC=C1[C@@]2(C)CC[C@@]2(C)[C@@H]3C[C@](C)(C(=O)O)CC[C@]3(C)CC[C@]12C | 0.0777 µM |
| COc1nc2nccnc2c(=O)n1C | > 10 µM |
| CCOC(=O)NC(Nc1cccc(C(F)(F)F)c1)(C(F)(F)F)C(F)(F)F | > 100 µM |
| COc1ccc2cc(C(C)C(=O)N3CCOC3=O)ccc2c1 (centres undefined) | > 100 µM |

system: HS 578T breast; assay: NCI anticancer screen, dose series, 48 h

| Structure (SMILES) | TGI |
| --- | --- |
| CC1=CC(C/C(C)=C/COc2ccc3ccc(=O)oc3c2)OC1=O (centres undefined) | > 100 µM |
| CN1[C@@H]2C[C@@H](OC(=O)[C@H](CO)c3ccccc3)C[C@H]1[C@@H]1O[C@@H]12 | > 100 µM |
| N#Cc1c(Cl)cc(Cl)n2c1nc1ccccc12 | 32.8 µM |
| CC1=C(O)C(=O)C=C2C1=CC=C1[C@@]2(C)CC[C@@]2(C)[C@@H]3C[C@](C)(C(=O)O)CC[C@]3(C)CC[C@]12C | 3.7 µM |
| COc1nc2nccnc2c(=O)n1C | > 10 µM |
| CCOC(=O)NC(Nc1cccc(C(F)(F)F)c1)(C(F)(F)F)C(F)(F)F | > 100 µM |
| COc1ccc2cc(C(C)C(=O)N3CCOC3=O)ccc2c1 (centres undefined) | > 100 µM |

system: HT29 colon; assay: NCI anticancer screen, dose series, 48 h

| Structure (SMILES) | TGI |
| --- | --- |
| CC1=CC(C/C(C)=C/COc2ccc3ccc(=O)oc3c2)OC1=O (centres undefined) | > 100 µM |
| CN1[C@@H]2C[C@@H](OC(=O)[C@H](CO)c3ccccc3)C[C@H]1[C@@H]1O[C@@H]12 | > 100 µM |
| N#Cc1c(Cl)cc(Cl)n2c1nc1ccccc12 | 23.6 µM |
| CC1=C(O)C(=O)C=C2C1=CC=C1[C@@]2(C)CC[C@@]2(C)[C@@H]3C[C@](C)(C(=O)O)CC[C@]3(C)CC[C@]12C | 0.145 µM |
| COc1nc2nccnc2c(=O)n1C | > 10 µM |
| CCOC(=O)NC(Nc1cccc(C(F)(F)F)c1)(C(F)(F)F)C(F)(F)F | > 100 µM |
| COc1ccc2cc(C(C)C(=O)N3CCOC3=O)ccc2c1 (centres undefined) | > 100 µM |

system: IGROV1 ovarian; assay: NCI anticancer screen, dose series, 48 h

| Structure (SMILES) | TGI |
| --- | --- |
| CC1=CC(C/C(C)=C/COc2ccc3ccc(=O)oc3c2)OC1=O (centres undefined) | > 100 µM |
| CN1[C@@H]2C[C@@H](OC(=O)[C@H](CO)c3ccccc3)C[C@H]1[C@@H]1O[C@@H]12 | > 100 µM |
| N#Cc1c(Cl)cc(Cl)n2c1nc1ccccc12 | 38.7 µM |
| CC1=C(O)C(=O)C=C2C1=CC=C1[C@@]2(C)CC[C@@]2(C)[C@@H]3C[C@](C)(C(=O)O)CC[C@]3(C)CC[C@]12C | 0.0428 µM |
| COc1nc2nccnc2c(=O)n1C | > 10 µM |
| CCOC(=O)NC(Nc1cccc(C(F)(F)F)c1)(C(F)(F)F)C(F)(F)F | > 100 µM |
| COc1ccc2cc(C(C)C(=O)N3CCOC3=O)ccc2c1 (centres undefined) | > 100 µM |

system: K-562 leukemia; assay: NCI anticancer screen, dose series, 48 h

| Structure (SMILES) | TGI |
| --- | --- |
| CC1=CC(C/C(C)=C/COc2ccc3ccc(=O)oc3c2)OC1=O (centres undefined) | > 100 µM |
| CN1[C@@H]2C[C@@H](OC(=O)[C@H](CO)c3ccccc3)C[C@H]1[C@@H]1O[C@@H]12 | > 100 µM |
| N#Cc1c(Cl)cc(Cl)n2c1nc1ccccc12 | 11.5 µM |
| CC1=C(O)C(=O)C=C2C1=CC=C1[C@@]2(C)CC[C@@]2(C)[C@@H]3C[C@](C)(C(=O)O)CC[C@]3(C)CC[C@]12C | 0.0617 µM |
| COc1nc2nccnc2c(=O)n1C | > 10 µM |
| CCOC(=O)NC(Nc1cccc(C(F)(F)F)c1)(C(F)(F)F)C(F)(F)F | > 100 µM |
| COc1ccc2cc(C(C)C(=O)N3CCOC3=O)ccc2c1 (centres undefined) | > 100 µM |

system: KM12 colon; assay: NCI anticancer screen, dose series, 48 h

| Structure (SMILES) | TGI |
| --- | --- |
| CC1=CC(C/C(C)=C/COc2ccc3ccc(=O)oc3c2)OC1=O (centres undefined) | > 100 µM |
| CN1[C@@H]2C[C@@H](OC(=O)[C@H](CO)c3ccccc3)C[C@H]1[C@@H]1O[C@@H]12 | > 100 µM |
| N#Cc1c(Cl)cc(Cl)n2c1nc1ccccc12 | 33.1 µM |
| CC1=C(O)C(=O)C=C2C1=CC=C1[C@@]2(C)CC[C@@]2(C)[C@@H]3C[C@](C)(C(=O)O)CC[C@]3(C)CC[C@]12C | 0.412 µM |
| COc1nc2nccnc2c(=O)n1C | > 10 µM |
| CCOC(=O)NC(Nc1cccc(C(F)(F)F)c1)(C(F)(F)F)C(F)(F)F | > 100 µM |
| COc1ccc2cc(C(C)C(=O)N3CCOC3=O)ccc2c1 (centres undefined) | > 100 µM |

system: LOX IMVI melanoma; assay: NCI anticancer screen, dose series, 48 h

| Structure (SMILES) | TGI |
| --- | --- |
| CC1=CC(C/C(C)=C/COc2ccc3ccc(=O)oc3c2)OC1=O (centres undefined) | > 100 µM |
| CN1[C@@H]2C[C@@H](OC(=O)[C@H](CO)c3ccccc3)C[C@H]1[C@@H]1O[C@@H]12 | > 100 µM |
| N#Cc1c(Cl)cc(Cl)n2c1nc1ccccc12 | 18.7 µM |
| CC1=C(O)C(=O)C=C2C1=CC=C1[C@@]2(C)CC[C@@]2(C)[C@@H]3C[C@](C)(C(=O)O)CC[C@]3(C)CC[C@]12C | 0.0414 µM |
